System: OVCAR3 Cells
Assay: OVCAR3 Cell Viability Assay (CellTiter-Glo)
Type: cell-based
Conditions: Homo sapiens, OVCAR-3, 144 h, 6 days incubation, read-out: OVCAR3 CTG IC50
Description: OVCAR3 Cells (ATCC, Cat #HTB-161) were seeded at a density of 2000 cells/well in a 96-well clear bottom plate (Greiner, Cat #655098) in 100 μL of complete media (RPMI1640+20% FBS+0.01 mg/mL human insulin). One hundred microliter of complete media was added into the blank well (column 1) for low control. Cells were allowed to adhere to the plate overnight in the incubator at 37° C., 5% CO2. On the following day, 0.5 μL of serially-diluted compounds were added to the cells (columns 2-10) and incubated for 6 days at 37 C, 5% CO2 (final 0.5% DMSO concentration); 0.5 μL of DMSO solution was added into the wells (column 11) for high control. Cell viability was detected according to the CellTiter-Glo Luminescent Cell Viability Assay Kit (Promega, Cat #G7573). Luminescence was recorded on the Tecan Spark plate reader. Inhibition rate (IR) of the tested compounds was determined by the following formula: IR (%)=(1−(RLUcompound−RLUlow control)/(RLUhigh control−RLUlow control))×100%. The IC50 value was calculated using the non-linear regression equation: Y=Bottom+(Top−Bottom)/(1+10^((Log IC50−X)×HillSlope)), where X is Log of compound concentration, Y is percent inhibition (IR (%)), Top and Bottom are plateaus in same units as Y.

SMILES	IC50 [nM]
CC1(F)CCC2(CC1)CN(c1ccc(C#N)c(N3CCC(F)(F)CC3)n1)C(=O)c1ccc(NS(=O)(=O)CCO)cc12 (stereo not drawn) [Compound 105]	< 200
O=C1c2cnc(NS(=O)(=O)CCO)cc2C2(CCC3(CC3)CC2)CN1c1ccc(F)c(N2CCC(F)(F)CC2)n1 [Compound 107]	< 200
CC1(F)CCC2(CC1)CN(c1ccc(C#N)c(NC3CC(F)(F)C3)n1)C(=O)c1ccc(NS(=O)(=O)CCO)cc12 (stereo not drawn) [Compound 111]	200 to 2000
CC1(F)CCC2(CC1)CN(c1ccnc(NC3CC(F)(F)C3)n1)C(=O)c1ccc(NS(=O)(=O)CCO)cc12 (stereo not drawn) [Compound 112]	200 to 2000
CC(C)(C)NS(=O)(=O)c1cccc(N2CC3(CCC4(CC4)CC3)c3cc(NS(=O)(=O)CCO)ccc3C2=O)c1 [Compound 113]	< 200
N#Cc1ccc(N2CC3(CCC4(CCC4)CC3)c3cc(NS(=O)(=O)CCO)ccc3C2=O)nc1NC1CC(F)(F)C1 [Compound 115]	< 200
CCS(=O)(=O)Nc1ccc2c(c1)C1(CCC3(CC3)CC1)CN(c1ccc(C#N)c(S(=O)(=O)N3CC(F)(F)C3)c1)C2=O [Compound 118]	< 200
CC(C)(C)NS(=O)(=O)c1cc(N2CC3(CCC4(CC4)CC3)c3cc(NS(=O)(=O)CCO)ccc3C2=O)ccc1C#N [Compound 119]	< 200
CC1(C)CCC2(CC1)CN(c1ccc(C#N)c(NC3CC(F)(F)C3)n1)C(=O)c1cc(F)c(NS(=O)(=O)CCO)cc12 [Compound 121]	< 200
N#Cc1ccc(N2CC3(CCC4(CC4)CC3)c3cc(NS(=O)(=O)CCO)ccc3C2=O)nc1C(=O)N1CCCC1 [Compound 122]	200 to 2000
O=C1c2ccc(NS(=O)(=O)CCO)cc2C2(CCC3(CCC3)CC2)CN1c1ccnc(NC2CC(F)(F)C2)n1 [Compound 124]	< 200
N#Cc1ccc(N2CC3(CCC(F)(F)CC3)c3cc(NS(=O)(=O)CCO)c(F)cc3C2=O)nc1N1CCC(F)(F)CC1 [Compound 126]	< 200
CC(C)[C@H](N)C(=O)OCCS(=O)(=O)Nc1ccc2c(c1)C1(CCC3(CC3)CC1)CN(c1ccc(C#N)c(N3CCC(F)(F)CC3)n1)C2=O [Compound 132]	< 200
COc1ccc(N2CC3(CCC4(CC4)CC3)c3cc(NS(=O)(=O)CCOC(=O)[C@@H](N)C(C)C)ccc3C2=O)nc1N1CCC(F)(F)CC1 [Compound 134]	< 200
CC(C)[C@H](N)C(=O)OCCS(=O)(=O)Nc1ccc2c(c1)C1(CCC3(CC3)CC1)CN(c1ccnc(NC3CC(F)(F)C3)n1)C2=O [Compound 135]	< 200
O=C1c2ccc(NS(=O)(=O)CCO)cc2C2(CCC3(CC3)CC2)CN1c1ccc(O)c(N2CCC(F)(F)CC2)n1 [Compound 137]	< 200
NC(=O)c1ccc(N2CC3(CCC4(CC4)CC3)c3cc(NS(=O)(=O)CCO)ccc3C2=O)nc1N1CCC(F)(F)CC1 [Compound 139]	< 200
Cn1cc(-c2ccc(N3CC4(CCC5(CC5)CC4)c4cc(NS(=O)(=O)CCO)ccc4C3=O)nc2N2CCC(F)(F)CC2)cn1 [Compound 141]	< 200
Cn1ccc(-c2ccc(N3CC4(CCC5(CC5)CC4)c4cc(NS(=O)(=O)CCO)ccc4C3=O)nc2N2CCC(F)(F)CC2)n1 [Compound 142]	< 200
CCNC(=O)c1ccc(N2CC3(CCC4(CC4)CC3)c3cc(NS(=O)(=O)CCO)ccc3C2=O)nc1N1CCC(F)(F)CC1 [Compound 144]	< 200
CCS(=O)(=O)Nc1ccc2c(c1)C1(CCC3(CC3)CC1)CN(c1ccnc(NC3CC(F)(F)C3)n1)C2=O [Compound 145]	< 200
COc1ncc(N2CC3(CCC4(CC4)CC3)c3cc(NS(=O)(=O)CCO)ccc3C2=O)nc1N1CCC(F)(F)CC1 [Compound 146]	< 200
CN(C)CCS(=O)(=O)Nc1ccc2c(c1)C1(CCC3(CC3)CC1)CN(c1ccc(C#N)c(N3CCC(F)(F)CC3)n1)C2=O [Compound 147]	200 to 2000
COCCS(=O)(=O)Nc1ccc2c(c1)C1(CCC3(CC3)CC1)CN(c1ccnc(NC3CC(F)(F)C3)n1)C2=O [Compound 148]	200 to 2000

Now from value to compound:

IC50 [nM]	SMILES
< 200	O=C1c2ccc(NS(=O)(=O)CCO)cc2C2(CCC3(CC3)CC2)CN1c1ccc(C(F)F)c(N2CCC(F)(F)CC2)n1 [Compound 149]
< 200	CCc1ccc(N2CC3(CCC4(CC4)CC3)c3cc(NS(=O)(=O)CCO)ccc3C2=O)nc1N1CCC(F)(F)CC1 [Compound 150]
< 200	O=C1c2ccc(NS(=O)(=O)CCO)cc2C2(CCC3(CC3)CC2)CN1c1ccc(C2CC2)c(N2CCC(F)(F)CC2)n1 [Compound 151]
< 200	CN(C)c1ccc(N2CC3(CCC4(CC4)CC3)c3cc(NS(=O)(=O)CCO)ccc3C2=O)nc1N1CCC(F)(F)CC1 [Compound 152]
200 to 2000	COc1ccc(N2CC3(CCC4(CC4)CC3)c3cc(NS(=O)(=O)CCN(C)C)ccc3C2=O)nc1N1CCC(F)(F)CC1 [Compound 153]
< 200	O=C1c2ccc(NS(=O)(=O)CCO)cc2C2(CCC3(CC3)CC2)CN1c1ccc(C(F)(F)F)c(N2CCC(F)(F)CC2)n1 [Compound 154]
< 200	O=C1c2ccc(NS(=O)(=O)CCO)cc2C2(CCC3(CC3)CC2)CN1c1ccc(OC(F)F)c(N2CCC(F)(F)CC2)n1 [Compound 155]
> 2000	O=C1c2ccc(NS(=O)(=O)C(F)(F)F)cc2C2(CCC3(CC3)CC2)CN1c1ccnc(NC2CC(F)(F)C2)n1 [Compound 156]
< 200	N#Cc1ncc(N2CC3(CCC4(CC4)CC3)c3cc(NS(=O)(=O)CCO)ccc3C2=O)nc1N1CCC(F)(F)CC1 [Compound 157]
< 200	N#Cc1ccc(N2CC3(CCC4(CC4)CC3)c3cc(NS(=O)(=O)CC(F)(F)F)ccc3C2=O)nc1N1CCC(F)(F)CC1 [Compound 158]
200 to 2000	N#Cc1ccc(N2CC3(CCC4(CC4)CC3)c3cc(NS(=O)(=O)C(F)(F)F)ccc3C2=O)nc1N1CCC(F)(F)CC1 [Compound 159]
< 200	Cc1ncc(-c2ccc(N3CC4(CCC5(CC5)CC4)c4cc(NS(=O)(=O)CCO)ccc4C3=O)nc2N2CCC(F)(F)CC2)cn1 [Compound 160]
< 200	Cc1ccc(-c2ccc(N3CC4(CCC5(CC5)CC4)c4cc(NS(=O)(=O)CCO)ccc4C3=O)nc2N2CCC(F)(F)CC2)cn1 [Compound 161]
< 200	CCNC(=O)c1ccc(N2CC3(CCC4(CC4)CC3)c3cc(NS(=O)(=O)CCO)ccc3C2=O)nc1NC1CC(F)(F)C1 [Compound 162]
< 200	Cn1cc(-c2ccc(N3CC4(CCC5(CC5)CC4)c4cc(NS(=O)(=O)CCO)ccc4C3=O)nc2NC2CC(F)(F)C2)cn1 [Compound 163]
< 200	Cc1cc(-c2ccc(N3CC4(CCC5(CC5)CC4)c4cc(NS(=O)(=O)CCO)ccc4C3=O)nc2N2CCC(F)(F)CC2)ccn1 [Compound 164]
< 200	NC(=O)c1ncc(N2CC3(CCC4(CC4)CC3)c3cc(NS(=O)(=O)CCO)ccc3C2=O)nc1N1CCC(F)(F)CC1 [Compound 165]
> 2000	O=C1c2ccc(NS(=O)(=O)CC(F)(F)F)cc2C2(CCC3(CC3)CC2)CN1c1ccnc(NC2CC(F)(F)C2)n1 [Compound 166]
< 200	NC(=O)c1ccc(N2CC3(CCC4(CC4)CC3)c3cc(NS(=O)(=O)CCO)ccc3C2=O)nc1NC1CC(F)(F)C1 [Compound 167]
< 200	Cn1cnc(-c2ccc(N3CC4(CCC5(CC5)CC4)c4cc(NS(=O)(=O)CCO)ccc4C3=O)nc2NC2CC(F)(F)C2)c1 [Compound 169]
200 to 2000	Cn1ccc(-c2ccc(N3CC4(CCC5(CC5)CC4)c4cc(NS(=O)(=O)CCO)ccc4C3=O)nc2NC2CC(F)(F)C2)n1 [Compound 170]
